{"source": "patent US12616713B2", "about": "“Methods for enhancing vascular density” (priority 2016, dated 2026)", "key": {"[1]": {"tested_on": "HUVECs", "assay": "VEGF-mediated transwell migration assay, HUVECs", "type": "cell-based, human", "settings": "NMN 500 μM versus PBS"}, "[2]": {"tested_on": "SIRT1-iKO and WT mice", "assay": "Hindlimb ischemia model", "type": "in vivo, mouse", "settings": "8-month old mice, femoral ligation, NMN 20 days; SIRT1-dependent", "description": "The effect of NMN in ischemia-induced vessel formation was assessed in a murine model of hindlimb ischemia using SIRT1-iKO and WT mice according to the published protocol (Limbourg et al., 2009, Nat Protoc 4, 1737-1746). Treatment of animals with NMN (500 mg/kg/day) via drinking water started one week prior to femoral ligation and was continued until the end of the experiment. The blood flow in the ischemic limb was measured using contrast-enhanced ultrasound imaging, 20 days after the surgery.\nMice were anesthetized with isoflurane (1.5-2%, 500 ml 02/min), hindlimbs were shaved using depilatory cream and a 27-gauge catheter was placed into each mouse's tail and kept in place with surgical tape. […] A cine loop was recorded at a frame rate of 20 frames/s for a total of 1,000 frames. […] The difference in maximum and minimum video intensity was determined as the peak enhancement and was the variable used to determine muscle perfusion.\nFreshly isolated whole quadriceps and gastrocnemius muscle samples were mounted in OCT compound (Tissue-Tek), placed in an isopentane bath and slowly cooled in liquid nitrogen. […] Images were acquired using a confocal fluorescence microscope (Nikon A1). Quantification of capillaries and capillary density were performed using ImageJ software. […]"}, "[3]": {"tested_on": "MLECs from WT and ESKO mice", "assay": "Apoptosis of serum-starved MLECs (Annexin V/PI)", "type": "cell-based, mouse", "settings": "serum-starved overnight, SIRT1-dependent", "description": "FIG. 38 is (A) a graph showing quantification of the relative cell number (n=12) of HUVECs incubated with PBS or NMN (0.5 mM) for 48 h in complete growth medium and cell number determined using flow cytometry. (B) a graph showing the number of apoptotic cells (Annexin V+/PI−) (n=12) when MLECs from WT and ESKO mice were serum-starved overnight, then assessed for apoptosis by Annexin V/PI staining and analyzed using flow cytometry. Data are expressed as mean±SEM. *p<0.05, **p<0.005, ***p<0.0005, ^δp<0.00005 by Student's t test (A), or two-way (B) ANOVA with Bonferroni's Multiple Comparisons Tests. (C) a schematic diagram of a model of how SIRT1 promotes sprouting angiogenesis. […]\nHUVECs were treated with PBS (vehicle), NaHS (100 μM), NMN (500 μM) or NMN+NaHS for 6 h, followed by exposure to H2O2 (600 μM) for another 4 h. After treatments, the number of apoptotic cells was determined using Annexin V-FITC apoptosis detection kit (eBioscience) as per manufacturer's instructions. […] After mixing gently, the fluorescence intensity was detected with a flow cytometry (FACSCanto II Analyzer, BD Biosciences) at emission at 530 nm and 575 nm and excitation at 488 nm. Annexin-V and PI staining were detected with a flow cytometry (FACSCanto II Analyzer, BD Biosciences) at emission at 530 nm and 575 nm and excitation at 488 run."}}, "data": [{"molecule": "NC(=O)c1ccc[n+]([C@@H]2O[C@H](COP(=O)([O-])O)[C@@H](O)[C@H]2O)c1", "note": "[NMN, nicotinamide mononucleotide]", "values": [{"measurement": "motility in response to VEGF (migrated cells)", "setting": "[1]", "value": "promoted"}, {"measurement": "capillary density of ischemic gastrocnemius", "setting": "[2]", "value": "restored"}, {"measurement": "relative blood volume (peak enhancement) of ischemic limb", "setting": "[2]", "value": "restored"}, {"measurement": "apoptosis in ECs (Annexin V+/PI-)", "setting": "[3]", "value": "reduced apoptosis"}]}]}
